For assay [1], the target named is T1, Serine/threonine-protein kinase LATS2 (Homo sapiens) (UniProt Q9NRM7).
T1 sequence (whole entry): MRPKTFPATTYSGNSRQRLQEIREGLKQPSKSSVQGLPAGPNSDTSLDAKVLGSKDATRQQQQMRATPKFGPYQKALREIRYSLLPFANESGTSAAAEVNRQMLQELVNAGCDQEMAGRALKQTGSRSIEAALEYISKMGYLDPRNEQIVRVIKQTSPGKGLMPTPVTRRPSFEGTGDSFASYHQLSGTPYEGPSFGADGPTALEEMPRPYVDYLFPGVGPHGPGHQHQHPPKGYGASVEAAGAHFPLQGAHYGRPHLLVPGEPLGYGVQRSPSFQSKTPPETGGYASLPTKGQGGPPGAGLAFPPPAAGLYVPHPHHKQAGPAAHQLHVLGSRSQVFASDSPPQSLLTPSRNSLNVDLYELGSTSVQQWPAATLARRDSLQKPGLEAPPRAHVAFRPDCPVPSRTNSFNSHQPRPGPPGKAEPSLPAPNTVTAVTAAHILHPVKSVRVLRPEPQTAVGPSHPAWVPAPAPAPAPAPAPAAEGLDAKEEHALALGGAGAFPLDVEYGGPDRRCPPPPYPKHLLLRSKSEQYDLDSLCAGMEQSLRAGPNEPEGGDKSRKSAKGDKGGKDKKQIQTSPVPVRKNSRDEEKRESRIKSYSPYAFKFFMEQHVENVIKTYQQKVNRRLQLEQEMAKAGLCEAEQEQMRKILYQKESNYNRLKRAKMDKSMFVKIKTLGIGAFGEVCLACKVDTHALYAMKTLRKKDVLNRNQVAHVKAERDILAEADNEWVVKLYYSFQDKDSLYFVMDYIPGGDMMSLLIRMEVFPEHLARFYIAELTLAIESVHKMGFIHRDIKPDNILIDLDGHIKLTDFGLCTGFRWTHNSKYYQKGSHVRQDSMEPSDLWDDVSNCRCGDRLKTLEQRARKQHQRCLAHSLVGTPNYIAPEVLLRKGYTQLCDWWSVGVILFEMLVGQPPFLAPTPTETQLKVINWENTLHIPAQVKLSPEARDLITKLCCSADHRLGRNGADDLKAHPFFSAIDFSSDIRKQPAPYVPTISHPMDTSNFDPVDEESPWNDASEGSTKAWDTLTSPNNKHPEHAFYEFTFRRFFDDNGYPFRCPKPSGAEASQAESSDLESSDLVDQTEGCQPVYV
The note with it: at 10 µM.

Assay [2] concerns the target Serine/threonine-protein kinase SIK1 (Homo sapiens) (UniProt P57059). The note with it: at 10 µM.
Assay [3] addresses Casein kinase I isoform delta (Homo sapiens, UniProt P48730). The assay is described as follows: Selectivity interaction (KinomeScan (DiscoverX)) EUB0000666a CSNK1D. Conditions: at 10 µM.
Assay [4] deals with Receptor-type tyrosine-protein kinase FLT3 (Homo sapiens) (UniProt P36888). The experiment in a line: Selectivity interaction (KinaseProfiler screening (Millipore)) EUB0000601a FLT3. The note with it: at 3 µM.
Chain of Receptor-type tyrosine-protein kinase FLT3 (Homo sapiens) (P36888 whole entry, canonical isoform): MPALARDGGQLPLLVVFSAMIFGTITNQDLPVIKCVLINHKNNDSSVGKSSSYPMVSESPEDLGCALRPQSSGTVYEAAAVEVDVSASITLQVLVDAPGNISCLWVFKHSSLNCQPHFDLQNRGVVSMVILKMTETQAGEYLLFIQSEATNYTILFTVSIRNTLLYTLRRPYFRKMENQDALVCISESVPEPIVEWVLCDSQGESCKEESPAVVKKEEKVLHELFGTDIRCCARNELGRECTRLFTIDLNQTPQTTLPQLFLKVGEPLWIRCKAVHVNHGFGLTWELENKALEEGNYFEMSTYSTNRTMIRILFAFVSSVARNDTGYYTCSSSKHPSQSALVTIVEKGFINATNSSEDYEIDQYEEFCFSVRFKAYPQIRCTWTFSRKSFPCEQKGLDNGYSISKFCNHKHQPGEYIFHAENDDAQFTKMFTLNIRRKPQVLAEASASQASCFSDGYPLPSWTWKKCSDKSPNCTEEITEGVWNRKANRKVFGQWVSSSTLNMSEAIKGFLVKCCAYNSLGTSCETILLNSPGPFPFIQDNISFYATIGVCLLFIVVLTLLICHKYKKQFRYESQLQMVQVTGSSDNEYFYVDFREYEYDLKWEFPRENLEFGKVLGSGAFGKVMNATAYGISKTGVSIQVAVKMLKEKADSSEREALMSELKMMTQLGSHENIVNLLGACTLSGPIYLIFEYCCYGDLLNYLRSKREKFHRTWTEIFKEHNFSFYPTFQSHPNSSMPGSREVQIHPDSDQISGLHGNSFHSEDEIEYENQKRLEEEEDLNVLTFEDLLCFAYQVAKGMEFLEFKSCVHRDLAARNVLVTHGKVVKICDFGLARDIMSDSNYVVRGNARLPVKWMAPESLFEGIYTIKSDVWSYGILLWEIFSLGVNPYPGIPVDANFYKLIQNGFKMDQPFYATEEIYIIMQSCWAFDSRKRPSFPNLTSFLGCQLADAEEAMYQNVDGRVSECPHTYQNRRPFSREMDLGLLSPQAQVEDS
Assay [5] deals with T2, Phosphorylase b kinase gamma catalytic chain, liver/testis isoform (Homo sapiens) (UniProt P15735).
T2 sequence (whole entry): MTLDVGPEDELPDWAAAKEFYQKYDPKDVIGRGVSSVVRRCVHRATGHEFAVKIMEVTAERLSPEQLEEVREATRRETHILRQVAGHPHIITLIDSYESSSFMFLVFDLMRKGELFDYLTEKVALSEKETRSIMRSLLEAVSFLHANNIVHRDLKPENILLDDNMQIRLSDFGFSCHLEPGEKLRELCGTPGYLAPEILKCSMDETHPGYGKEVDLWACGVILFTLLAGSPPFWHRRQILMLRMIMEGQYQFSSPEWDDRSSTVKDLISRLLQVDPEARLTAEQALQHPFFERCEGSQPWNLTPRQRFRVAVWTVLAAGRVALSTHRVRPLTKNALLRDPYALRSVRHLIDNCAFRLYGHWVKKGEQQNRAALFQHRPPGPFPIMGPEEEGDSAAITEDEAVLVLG
The experiment in a line: Selectivity interaction (ActivX KiNativ screen (kinase selectivity in THP-1 cell lysates)) EUB0000639a PHKG2. Type of assay: subcellular. The note with it: lysate.

Assay [6] has as its target Ribosomal protein S6 kinase alpha-1 (Homo sapiens, UniProt Q15418). The experiment in a line: Selectivity interaction (ActivX KiNativ screen (kinase selectivity in THP-1 cell lysates)) EUB0000639a RPS6KA1. The note with it: lysate, at 5 µM. Type of assay: subcellular.
Assay [7] has as its target Tyrosine-protein kinase ABL1 (Homo sapiens, UniProt P00519). The assay is described as follows: Selectivity interaction (KinomeScan (DiscoverX)) EUB0000045b ABL1. The note with it: at 1 µM.
The target in assay [8] is Dual specificity protein kinase CLK3 (Homo sapiens, UniProt P49761). The assay is described as follows: Selectivity interaction (Enzymatic assay (Eurofins)) EUB0001049a CLK3.
Chain of Dual specificity protein kinase CLK3 (P49761 whole entry, canonical isoform): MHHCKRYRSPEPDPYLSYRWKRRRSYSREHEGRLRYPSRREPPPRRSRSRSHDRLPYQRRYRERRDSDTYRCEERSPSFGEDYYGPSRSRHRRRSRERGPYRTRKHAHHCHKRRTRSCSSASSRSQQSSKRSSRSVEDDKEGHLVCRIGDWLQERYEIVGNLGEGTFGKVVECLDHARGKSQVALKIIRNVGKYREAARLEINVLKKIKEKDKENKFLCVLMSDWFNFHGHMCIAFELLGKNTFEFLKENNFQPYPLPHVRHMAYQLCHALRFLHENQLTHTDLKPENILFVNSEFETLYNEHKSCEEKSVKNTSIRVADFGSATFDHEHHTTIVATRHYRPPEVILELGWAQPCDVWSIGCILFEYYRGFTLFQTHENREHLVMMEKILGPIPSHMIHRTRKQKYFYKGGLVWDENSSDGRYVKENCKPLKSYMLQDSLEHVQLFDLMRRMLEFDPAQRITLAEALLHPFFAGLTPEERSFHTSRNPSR
Assay [9] deals with Casein kinase I isoform gamma-3 (Homo sapiens) (UniProt Q9Y6M4). The experiment in a line: Selectivity interaction (KinomeScan (DiscoverX)) EUB0000618a CSNK1G3. Conditions: at 10 µM.
Chain of Casein kinase I isoform gamma-3 (Homo sapiens) (Q9Y6M4 whole entry, looked up, canonical isoform): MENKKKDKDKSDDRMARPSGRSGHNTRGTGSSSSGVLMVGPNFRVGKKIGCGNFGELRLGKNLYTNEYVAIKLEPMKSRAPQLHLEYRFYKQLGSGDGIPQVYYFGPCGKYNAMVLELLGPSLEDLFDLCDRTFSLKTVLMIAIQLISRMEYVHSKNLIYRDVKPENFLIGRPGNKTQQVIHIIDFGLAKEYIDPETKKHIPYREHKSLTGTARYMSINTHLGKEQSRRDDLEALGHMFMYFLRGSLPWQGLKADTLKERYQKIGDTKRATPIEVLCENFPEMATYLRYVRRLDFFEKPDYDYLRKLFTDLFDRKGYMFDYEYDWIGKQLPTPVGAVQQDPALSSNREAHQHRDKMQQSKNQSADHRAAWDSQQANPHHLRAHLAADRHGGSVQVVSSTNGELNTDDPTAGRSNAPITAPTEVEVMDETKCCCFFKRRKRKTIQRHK
In assay [10] the target is Tyrosine-protein kinase Yes (Homo sapiens) (UniProt P07947). The assay is described as follows: Selectivity interaction (Millipore kinase profiler) EUB0000124b YES1. Conditions: at 10 µM.
Chain of Tyrosine-protein kinase Yes (Homo sapiens) (P07947 2-543 limits assumed): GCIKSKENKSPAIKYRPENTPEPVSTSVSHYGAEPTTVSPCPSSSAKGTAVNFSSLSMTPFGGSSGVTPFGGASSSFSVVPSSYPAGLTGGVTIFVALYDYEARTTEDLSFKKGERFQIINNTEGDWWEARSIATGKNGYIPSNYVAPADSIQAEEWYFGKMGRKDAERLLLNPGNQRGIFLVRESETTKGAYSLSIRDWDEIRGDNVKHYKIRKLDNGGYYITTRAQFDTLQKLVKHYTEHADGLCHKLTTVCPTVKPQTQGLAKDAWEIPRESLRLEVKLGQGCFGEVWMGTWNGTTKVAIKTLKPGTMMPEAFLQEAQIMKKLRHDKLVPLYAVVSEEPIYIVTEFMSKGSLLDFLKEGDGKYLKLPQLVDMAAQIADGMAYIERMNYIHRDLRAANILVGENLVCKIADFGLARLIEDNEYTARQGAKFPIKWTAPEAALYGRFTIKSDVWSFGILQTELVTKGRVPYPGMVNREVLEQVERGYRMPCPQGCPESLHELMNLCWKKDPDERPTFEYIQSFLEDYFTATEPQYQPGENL
In assay [11] the target is T3, Tyrosine-protein kinase TXK (Homo sapiens) (UniProt P42681).
T3 sequence (whole entry): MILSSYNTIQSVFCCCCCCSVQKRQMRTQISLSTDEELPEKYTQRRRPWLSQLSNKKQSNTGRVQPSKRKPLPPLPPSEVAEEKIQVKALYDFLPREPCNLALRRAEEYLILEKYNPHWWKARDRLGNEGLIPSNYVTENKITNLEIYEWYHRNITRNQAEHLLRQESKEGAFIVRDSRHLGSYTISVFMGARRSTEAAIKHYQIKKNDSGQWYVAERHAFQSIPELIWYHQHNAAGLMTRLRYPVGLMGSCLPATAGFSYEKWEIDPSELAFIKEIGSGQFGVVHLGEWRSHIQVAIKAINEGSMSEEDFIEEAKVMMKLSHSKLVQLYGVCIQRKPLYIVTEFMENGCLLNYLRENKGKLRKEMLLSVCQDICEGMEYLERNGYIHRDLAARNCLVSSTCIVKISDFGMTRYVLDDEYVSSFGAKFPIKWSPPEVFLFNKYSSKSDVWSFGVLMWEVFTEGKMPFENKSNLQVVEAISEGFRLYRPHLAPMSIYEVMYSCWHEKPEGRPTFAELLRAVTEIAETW
The experiment in a line: Selectivity interaction (KinomeScan (DiscoverX)) EUB0000229b TXK. Conditions: at 10 µM.

The results in this text go back to ChEMBL document CHEMBL5465560, “Selectivity Literature for EUbOPEN Chemogenomic Library” (2024).

The structures appear in SMILES notation.

Chain of Casein kinase I isoform delta (P48730 whole entry, looked up, canonical isoform): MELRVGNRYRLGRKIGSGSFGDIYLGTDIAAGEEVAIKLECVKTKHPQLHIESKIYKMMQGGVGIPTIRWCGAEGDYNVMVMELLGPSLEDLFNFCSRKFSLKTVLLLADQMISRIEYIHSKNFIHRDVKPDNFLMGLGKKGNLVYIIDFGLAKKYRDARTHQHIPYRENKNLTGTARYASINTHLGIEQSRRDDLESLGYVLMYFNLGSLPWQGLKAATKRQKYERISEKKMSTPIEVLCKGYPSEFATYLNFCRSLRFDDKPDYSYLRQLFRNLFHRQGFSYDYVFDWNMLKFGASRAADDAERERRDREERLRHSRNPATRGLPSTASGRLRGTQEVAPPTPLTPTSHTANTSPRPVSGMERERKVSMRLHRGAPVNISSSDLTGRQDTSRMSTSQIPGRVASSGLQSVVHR
Chain of Serine/threonine-protein kinase SIK1 (Homo sapiens) (P57059 whole entry, canonical isoform): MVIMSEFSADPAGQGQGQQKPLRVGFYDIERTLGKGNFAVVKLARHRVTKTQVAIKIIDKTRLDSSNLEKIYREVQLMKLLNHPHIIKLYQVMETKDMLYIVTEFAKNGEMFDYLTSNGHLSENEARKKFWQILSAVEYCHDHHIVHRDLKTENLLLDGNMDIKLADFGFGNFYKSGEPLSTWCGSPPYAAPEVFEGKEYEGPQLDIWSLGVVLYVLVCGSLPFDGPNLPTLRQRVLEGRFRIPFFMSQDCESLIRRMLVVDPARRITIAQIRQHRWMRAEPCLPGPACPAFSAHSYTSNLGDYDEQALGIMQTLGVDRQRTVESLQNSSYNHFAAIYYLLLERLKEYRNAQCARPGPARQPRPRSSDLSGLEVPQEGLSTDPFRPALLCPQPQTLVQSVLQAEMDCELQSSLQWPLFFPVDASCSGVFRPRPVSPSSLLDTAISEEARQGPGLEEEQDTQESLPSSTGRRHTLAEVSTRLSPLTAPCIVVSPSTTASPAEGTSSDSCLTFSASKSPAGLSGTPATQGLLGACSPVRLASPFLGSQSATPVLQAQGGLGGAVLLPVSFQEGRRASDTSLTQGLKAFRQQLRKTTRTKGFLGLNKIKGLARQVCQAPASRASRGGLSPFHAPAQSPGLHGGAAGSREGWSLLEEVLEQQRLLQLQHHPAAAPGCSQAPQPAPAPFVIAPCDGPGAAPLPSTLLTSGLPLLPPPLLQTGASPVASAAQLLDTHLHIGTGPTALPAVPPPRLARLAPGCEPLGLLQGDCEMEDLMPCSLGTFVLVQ
Chain of Tyrosine-protein kinase ABL1 (P00519 whole entry): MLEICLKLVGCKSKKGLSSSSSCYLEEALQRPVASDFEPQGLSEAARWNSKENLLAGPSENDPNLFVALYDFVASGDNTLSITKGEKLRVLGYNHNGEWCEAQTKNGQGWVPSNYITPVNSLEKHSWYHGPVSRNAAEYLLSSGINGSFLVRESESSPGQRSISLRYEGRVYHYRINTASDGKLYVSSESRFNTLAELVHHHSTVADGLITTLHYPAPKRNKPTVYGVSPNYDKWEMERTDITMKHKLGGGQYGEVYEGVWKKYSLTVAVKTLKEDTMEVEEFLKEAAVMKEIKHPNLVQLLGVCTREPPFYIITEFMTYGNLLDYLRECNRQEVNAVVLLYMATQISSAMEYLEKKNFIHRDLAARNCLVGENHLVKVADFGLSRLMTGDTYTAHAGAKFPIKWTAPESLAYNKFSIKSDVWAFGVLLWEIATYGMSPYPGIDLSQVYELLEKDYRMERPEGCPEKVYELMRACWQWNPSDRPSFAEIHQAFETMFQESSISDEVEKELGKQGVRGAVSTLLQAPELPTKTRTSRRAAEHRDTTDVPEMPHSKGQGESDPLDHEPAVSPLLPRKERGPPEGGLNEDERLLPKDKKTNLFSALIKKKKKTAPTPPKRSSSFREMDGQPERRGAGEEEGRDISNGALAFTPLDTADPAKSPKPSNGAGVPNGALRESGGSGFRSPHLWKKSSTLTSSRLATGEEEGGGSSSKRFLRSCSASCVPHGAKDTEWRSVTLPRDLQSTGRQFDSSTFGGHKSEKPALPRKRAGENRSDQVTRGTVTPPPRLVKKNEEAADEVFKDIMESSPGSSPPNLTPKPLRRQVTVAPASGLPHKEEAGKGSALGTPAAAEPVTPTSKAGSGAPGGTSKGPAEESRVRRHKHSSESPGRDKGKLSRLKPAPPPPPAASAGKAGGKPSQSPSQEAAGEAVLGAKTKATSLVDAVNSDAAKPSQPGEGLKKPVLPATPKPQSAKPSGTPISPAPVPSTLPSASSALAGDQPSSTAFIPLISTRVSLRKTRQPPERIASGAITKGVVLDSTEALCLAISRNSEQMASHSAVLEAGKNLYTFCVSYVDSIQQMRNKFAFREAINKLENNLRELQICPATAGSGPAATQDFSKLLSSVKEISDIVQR

As for `COCC(=O)NC/C=C/c1ccc2ncnc(Nc3ccc(Oc4ccc(C)nc4)c(C)c3)c2c1` [CP-724714], the % of control in assay [1] came to 100%.
Regarding `CCN(CC)CCCCNc1ncc2cc(-c3cc(OC)cc(OC)c3)c(NC(=O)NC(C)(C)C)nc2n1`, the % of control in assay [2] is 100%.
With `O=C(NOC[C@H](O)CO)c1ccc(F)c(F)c1Nc1ccc(I)cc1F`, in assay [3], the % of control was 100%.
For the molecule `CCc1cc(Nc2nccc(-c3c(-c4ccc(OC)c(C(=O)Nc5c(F)cccc5F)c4)nc4ccccn34)n2)c(OC)cc1N1CCC(N2CCN(S(C)(=O)=O)CC2)CC1`, the % of inhibition in [4] was 57%.
With `CC[C@@H]1[C@H](F)C(=O)N[C@@H]1COc1nccc2cc(C(N)=O)c(OC)cc12` [ZIMLOVISERTIB], the % of inhibition was 15.9% in assay [5] (at 0.01 µM); 3.7% in assay [5] (at 0.04 µM); 0.2% in assay [5] (at 0.2 µM); -8.2% in [5] (at 1 µM); 7% in assay [5] (at 5 µM); 11.7% in assay [6].
For `C=CC(=O)Nc1cc(-n2c(=O)ccc3cnc4ccc(-c5ccc(NS(C)(=O)=O)cc5)cc4c32)ccc1C`, the % of control in [7] was 100%.
A word on the IC50: it is the midpoint of a concentration-inhibition curve. Low readings indicate greater potency, high ones weaker potency. With `COc1cc(Nc2nc(C)cc(-c3cnn4nc(OC)ccc34)n2)cc(C(F)(F)F)c1`, in assay [8], the IC50 is more than 10 µM.
Molecule `O[C@H]1CC[C@H](Nc2ncc3nc(Nc4c(F)cc(F)cc4F)n([C@H]4CCOC4)c3n2)CC1` returned a % of control in [9] of 100%.
For `CC(=O)Nc1cccc(-n2c(=O)n(C3CC3)c(=O)c3c(Nc4ccc(I)cc4F)n(C)c(=O)c(C)c32)c1`, in [10], the % of control stood at 104%.
The molecule `COc1cc(N(C)c2ccnc3ccc(C(F)(F)F)cc23)cc(OC)c1OC` gave a % binding in [11] of 96%.
